# Earlier results, collected in US11529304B2, “Method for dyeing keratin material by means of a dyeing agent and an acidic posttreatment agent” (Henkel AG & Co. KGaA, priority 2018, dated 2022).
# Details: for solubility in water: 25° C.
solubility in water (in words) (at 25° C.),Molecule,solubility in water
–,"O=S(=O)([O-])c1ccc(N=Nc2c(O)ccc3ccccc23)cc1.[Na+] [Acid Orange 7, sodium salt of 4-[(2-hydroxy-1-naphthyl)azo]benzene sulphonate]",more than 7 g/L
–,"Nc1cc(S(=O)(=O)[O-])cc2cc(S(=O)(=O)[O-])c(N=Nc3ccccc3)c(O)c12.[Na+].[Na+] [Acid Red 33, diantrium salt of 5-amino-4-hydroxy-3-(phenylazo)-naphthalene-2,7-disulphonate]",2.5 mg/mL
–,"O=C([O-])c1c(Cl)c(Cl)c(Cl)c(Cl)c1-c1c2c(Br)cc(=O)c(Br)c-2oc2c(Br)c(O)cc(Br)c12.O=C([O-])c1c(Cl)c(Cl)c(Cl)c(Cl)c1-c1c2c(Br)cc(=O)c(Br)c-2oc2c(Br)c(O)cc(Br)c12.[Na+].[Na+] [Acid Red 92, disodium salt of 3,4,5,6-tetrachloro-2-(1,4,5,8-tetrabromo-6-hydroxy-3-oxoxanthen-9-yl)benzoic acid]",greater than 10 g/L
highly soluble,O=C([O-])C1=NN(c2ccc(S(=O)(=O)[O-])cc2)C(=O)C1N=Nc1ccc(S(=O)(=O)[O-])cc1.[Na+].[Na+].[Na+] (centres unmarked) [Acid Yellow 23],–
–,"mixture of the sodium salts of mono- and sisulfonic acids of 2-(2-quinolyl)-1H-indene-1,3(2H)-dione [Acid Yellow 3]",20 mg/mL
